Results reported in US10364247B2, “Preparation and use of novel protein kinase inhibitors” (Ruijin Hospital Affiliated to Shanghai Jiao Tong University …, priority 2015, dated 2019).

Assays:
Format in all cases: cell-based, murine
BaF3-BCR/ABL = biological target: T1, BaF3-BCR/ABL (Homo sapiens, UniProt P00519); test: Antiproliferative activity, kinase-dependent Ba/F3 cells (MTT/MTS); details: 48 hours, cell viability, read-out: BCR/ABL IC50
T1 construct: fused on or other part: P11274 (Breakpoint cluster region protein)
Experimental: (§1) Following up on the kinome data, the ability of compounds disclosed in the present invention to inhibit proliferation of cells that are dependent on selected protein kinases was tested. […] In addition, compounds were assayed to measure their capacity to inhibit TIE1, LYN, EML4-ALK, INSR and HCK kinases.
(§2) The murine cell line used is the BaF/3 cell line transformed with BCR/ABL cDNA (BaF/3-p210) or BCR/ABL-T315I mutant (Ba/F3-p210-T315I). These cells are maintained in RPMI/10% fetal calf serum (RPMI/FCS) supplemented with penicillin 50 μg/mL, streptomycin 50 μg/mL and L-glutamine […]. Untransformed BaF/3 cells (Wt-BaF/3) are similarly maintained with the addition of 15% of WEHI conditioned medium as a source of IL3.
(§3) Cells were seeded at a density of 20,000 cells/well into 96-well plates.
(§4) The background control wells to which media with no cells added and the vehicle control wells were included on each plate in triplicate. Cell viability was determined using MTT (Sigma, St. Louis, Mo., USA) and MTS (Promega, Madison, Wis., USA), according to the manufacturer's instructions. Results were analyzed using GraphPad Prism 5.0 (GraphPad Software, San Diego, Calif.) and IC50 values were calculated from cell viability dose-response curves and defined as the concentration of compound needed to reduce cell viability to 50% of a vehicle control (DMSO) (Table 3).

BaF3-BCR/ABL-T315I = biological target: T2, BaF3-BCR/ABL-T315I (Homo sapiens, UniProt P00519, T315I, cells depend on it); test: as above; details: 48 hours, cell viability, read-out: BCR/ABL T315I IC50
T2 construct: fused on or other part: P11274 (Breakpoint cluster region protein)
Experimental: as §1, §2, §3, §4

BaF3-KRASD12 = test: Oncogenic RAS dependent cell proliferation (CellTiter Glo); details: Mus musculus, BaF3-KRASD12 cells, 48 hours, read-out: KRas-BaF3 IC50
Experimental: (§5) The BaF/3 cell line transformed with oncogenic NRAS or KRAS (BaF/3-NRASD12 or BaF/3-KRASD12) and the parental BaF/3 cells were used to measure the abilities of compounds of the invention to suppress RAS transformation (Table 5). Cells were seeded at a density of 5000 cells/well into 96-well plates. […] The background control wells to which media with no cells added and the vehicle control wells were included on each plate in triplicate. Cell viability was determined using CellTiter Glo Assay (Promega) according to manufacture's instruction with a minor modification of diluting 1 part CellTiter Glo reagent to 4 parts phosphate buffered saline (PBS) before use. The luminescence value was read out by an Envision (PerkinElmer).

BaF3-NRASD12 = test: as above; details: Mus musculus, BaF3-NRASD12 cells, 48 hours, read-out: NRas-BaF3 IC50
Experimental: as §5

BaF3-TEL-TIE1 = biological target: T3, BaF3-TEL-TIE1 (Homo sapiens, UniProt P35590); test: Antiproliferative activity, kinase-dependent Ba/F3 cells (MTT/MTS); details: 48 hours, cell viability, read-out: tel-TIE1 IC50
T3 construct: fused on or other part: P41212 (Transcription factor ETV6)
Experimental: as §1, §2, §3, §4
(§6) Cell proliferation assays of compounds of the invention against TIE1, LYN, EML4-ALK, INSR and Hck were conducted using identical methods as described above for BCR/ABL, except that BaF3-TEL-TIE1, BaF3-TEL-LYN, BaF3-EML4-ALK, BaF3-TEL-INSR, and BaF3-TEL-HCK are used instead of BaF3-BCR/ABL (Table 3 and 4).

BaF3-EML4-ALK = biological target: T4, BaF3-EML4-ALK (Homo sapiens, UniProt Q9UM73); test: as above; details: 48 hours, cell viability, read-out: EML4-ALK IC50
T4 construct: fused on or other part: Q9HC35 (Echinoderm microtubule-associated protein-like 4)
Experimental: as §1, §2, §3, §4, §6

BaF3-TEL-LYN = biological target: T5, BaF3-TEL-LYN (Homo sapiens, UniProt P07948); test: as above; details: 48 hours, cell viability, read-out: tel-LYN IC50
T5 construct: fused on or other part: P41212 (Transcription factor ETV6)
Experimental: as §1, §2, §3, §4, §6

Wt-BaF3 = test: Parental Ba/F3 cell proliferation (CellTiter Glo); details: Mus musculus, parental BaF/3 cells, 48 hours
Experimental: as §2, §5

BaF3-TEL-HCK = biological target: T6, BaF3-TEL-HCK (Homo sapiens, UniProt P08631); test: Antiproliferative activity, kinase-dependent Ba/F3 cells (MTT/MTS); details: 48 hours, cell viability, read-out: Tel-HCK IC50
T6 construct: fused on or other part: P41212 (Transcription factor ETV6)
Experimental: as §1, §2, §3, §4, §6

T3 sequence (P35590 whole entry, change not shown, the tested form may be a part): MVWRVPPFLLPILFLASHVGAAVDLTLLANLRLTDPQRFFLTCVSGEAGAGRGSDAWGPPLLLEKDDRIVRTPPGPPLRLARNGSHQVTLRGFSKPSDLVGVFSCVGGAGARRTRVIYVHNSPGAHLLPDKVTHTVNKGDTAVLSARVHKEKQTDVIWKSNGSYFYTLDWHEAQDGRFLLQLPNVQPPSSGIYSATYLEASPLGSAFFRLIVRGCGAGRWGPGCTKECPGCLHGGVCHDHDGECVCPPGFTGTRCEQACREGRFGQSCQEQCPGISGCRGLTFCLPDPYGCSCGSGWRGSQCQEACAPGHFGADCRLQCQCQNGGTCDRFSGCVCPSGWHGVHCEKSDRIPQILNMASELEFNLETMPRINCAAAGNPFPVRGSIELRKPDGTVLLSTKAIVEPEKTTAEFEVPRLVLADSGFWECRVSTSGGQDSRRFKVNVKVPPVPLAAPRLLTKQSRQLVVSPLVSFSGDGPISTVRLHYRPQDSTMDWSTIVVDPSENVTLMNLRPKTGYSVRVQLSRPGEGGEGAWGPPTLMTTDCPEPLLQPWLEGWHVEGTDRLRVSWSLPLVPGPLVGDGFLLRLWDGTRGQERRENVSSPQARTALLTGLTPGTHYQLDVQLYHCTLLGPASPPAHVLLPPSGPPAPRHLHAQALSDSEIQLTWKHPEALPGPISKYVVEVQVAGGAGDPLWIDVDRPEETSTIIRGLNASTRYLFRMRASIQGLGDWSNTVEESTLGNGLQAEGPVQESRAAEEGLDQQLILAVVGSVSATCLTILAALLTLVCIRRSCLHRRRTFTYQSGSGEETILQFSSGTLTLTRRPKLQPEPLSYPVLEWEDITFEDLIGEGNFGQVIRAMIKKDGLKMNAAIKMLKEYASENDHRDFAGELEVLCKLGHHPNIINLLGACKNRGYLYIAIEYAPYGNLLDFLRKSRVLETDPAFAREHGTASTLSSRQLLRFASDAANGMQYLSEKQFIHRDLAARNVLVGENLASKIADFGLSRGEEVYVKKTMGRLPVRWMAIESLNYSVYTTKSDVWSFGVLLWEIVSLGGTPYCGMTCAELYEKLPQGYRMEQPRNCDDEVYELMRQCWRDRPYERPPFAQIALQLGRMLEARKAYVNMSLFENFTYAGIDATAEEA
T4 sequence (Q9UM73 whole entry, change not shown, the tested form may be a part): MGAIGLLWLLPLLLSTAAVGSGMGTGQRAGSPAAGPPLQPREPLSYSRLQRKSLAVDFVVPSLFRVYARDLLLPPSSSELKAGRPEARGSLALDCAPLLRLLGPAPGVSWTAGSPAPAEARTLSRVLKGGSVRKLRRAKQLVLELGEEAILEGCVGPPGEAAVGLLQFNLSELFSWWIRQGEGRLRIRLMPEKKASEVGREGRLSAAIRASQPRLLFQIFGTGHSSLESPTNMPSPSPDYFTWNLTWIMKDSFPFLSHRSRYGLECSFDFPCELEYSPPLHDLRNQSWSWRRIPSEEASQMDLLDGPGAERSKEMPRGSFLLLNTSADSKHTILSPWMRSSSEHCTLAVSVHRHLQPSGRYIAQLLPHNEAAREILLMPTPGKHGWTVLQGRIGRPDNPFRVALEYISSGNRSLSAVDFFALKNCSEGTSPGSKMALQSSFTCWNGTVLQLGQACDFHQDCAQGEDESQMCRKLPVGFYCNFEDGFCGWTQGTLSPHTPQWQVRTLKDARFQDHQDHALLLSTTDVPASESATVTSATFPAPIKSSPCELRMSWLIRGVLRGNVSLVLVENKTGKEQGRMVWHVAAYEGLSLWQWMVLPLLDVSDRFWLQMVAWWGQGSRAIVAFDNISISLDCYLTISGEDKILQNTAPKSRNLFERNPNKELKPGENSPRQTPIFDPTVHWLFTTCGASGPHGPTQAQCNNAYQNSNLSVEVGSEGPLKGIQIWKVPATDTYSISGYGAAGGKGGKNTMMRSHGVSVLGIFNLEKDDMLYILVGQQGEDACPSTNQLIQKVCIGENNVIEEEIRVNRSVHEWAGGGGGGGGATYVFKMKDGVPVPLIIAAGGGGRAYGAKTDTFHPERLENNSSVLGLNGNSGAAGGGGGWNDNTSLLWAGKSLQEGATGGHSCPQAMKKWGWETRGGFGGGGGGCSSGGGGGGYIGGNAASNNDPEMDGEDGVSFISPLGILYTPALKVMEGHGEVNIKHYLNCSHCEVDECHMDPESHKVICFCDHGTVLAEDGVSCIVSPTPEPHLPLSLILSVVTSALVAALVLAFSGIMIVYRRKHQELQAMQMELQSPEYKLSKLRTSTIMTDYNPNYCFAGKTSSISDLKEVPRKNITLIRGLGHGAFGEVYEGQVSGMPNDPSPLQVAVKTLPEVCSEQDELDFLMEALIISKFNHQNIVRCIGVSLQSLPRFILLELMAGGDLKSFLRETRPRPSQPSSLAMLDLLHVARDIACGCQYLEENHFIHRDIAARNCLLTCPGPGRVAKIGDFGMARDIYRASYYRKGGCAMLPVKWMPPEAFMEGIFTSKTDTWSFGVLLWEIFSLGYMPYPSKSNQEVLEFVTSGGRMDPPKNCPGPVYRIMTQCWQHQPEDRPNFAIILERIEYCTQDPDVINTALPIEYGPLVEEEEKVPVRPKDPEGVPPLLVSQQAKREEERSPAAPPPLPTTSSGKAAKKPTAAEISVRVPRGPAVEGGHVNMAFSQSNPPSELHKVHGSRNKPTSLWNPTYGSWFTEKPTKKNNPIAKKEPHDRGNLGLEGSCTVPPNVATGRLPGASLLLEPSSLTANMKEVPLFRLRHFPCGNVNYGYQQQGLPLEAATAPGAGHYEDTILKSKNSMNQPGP
T5 sequence (P07948 whole entry, change not shown, the tested form may be a part): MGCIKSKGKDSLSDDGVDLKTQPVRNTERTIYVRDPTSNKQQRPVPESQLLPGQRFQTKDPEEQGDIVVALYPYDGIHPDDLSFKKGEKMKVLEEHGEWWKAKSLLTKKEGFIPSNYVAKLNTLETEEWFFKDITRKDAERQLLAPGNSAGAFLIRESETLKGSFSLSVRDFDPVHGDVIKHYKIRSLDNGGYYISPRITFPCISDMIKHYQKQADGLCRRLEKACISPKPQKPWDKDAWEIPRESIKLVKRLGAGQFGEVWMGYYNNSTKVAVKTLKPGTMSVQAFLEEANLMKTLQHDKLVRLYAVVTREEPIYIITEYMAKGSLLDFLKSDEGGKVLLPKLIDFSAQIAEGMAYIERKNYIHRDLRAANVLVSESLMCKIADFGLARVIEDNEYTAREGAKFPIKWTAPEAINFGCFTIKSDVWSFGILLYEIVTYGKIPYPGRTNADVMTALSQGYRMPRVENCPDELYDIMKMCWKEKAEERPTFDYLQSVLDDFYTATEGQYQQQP
T6 sequence (P08631 whole entry, change not shown, the tested form may be a part): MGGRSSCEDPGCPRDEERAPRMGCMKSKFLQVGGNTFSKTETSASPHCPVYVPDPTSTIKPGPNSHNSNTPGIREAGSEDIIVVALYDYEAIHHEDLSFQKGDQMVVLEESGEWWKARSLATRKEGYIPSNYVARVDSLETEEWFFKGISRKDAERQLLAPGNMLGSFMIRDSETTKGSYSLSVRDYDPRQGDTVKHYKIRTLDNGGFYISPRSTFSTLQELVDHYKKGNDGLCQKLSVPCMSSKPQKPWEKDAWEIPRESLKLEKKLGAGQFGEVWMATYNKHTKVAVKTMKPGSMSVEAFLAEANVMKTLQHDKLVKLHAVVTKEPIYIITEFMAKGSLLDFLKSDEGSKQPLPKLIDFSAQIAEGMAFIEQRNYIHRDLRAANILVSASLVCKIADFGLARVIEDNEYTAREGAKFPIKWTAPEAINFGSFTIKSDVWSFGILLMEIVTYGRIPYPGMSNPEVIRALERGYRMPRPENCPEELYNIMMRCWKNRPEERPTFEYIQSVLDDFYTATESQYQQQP

Row | Compound | GI50 (BaF3-BCR/ABL) [µM] | GI50 (BaF3-BCR/ABL-T315I) [µM] | IC50 (BaF3-KRASD12) [µM] | IC50 (BaF3-NRASD12) [µM] | GI50 (BaF3-TEL-TIE1) [µM] | GI50 (BaF3-EML4-ALK) [µM] | GI50 (BaF3-TEL-LYN) [µM] | IC50 (Wt-BaF3) [µM] | GI50 (BaF3-TEL-HCK) [µM]
1 | CNc1ncc2c(n1)N(C)CN(c1cc(NC(=O)c3cccc(C(F)(F)F)c3)ccc1C)C2 [IA-3, N-(4-methyl-3-(1-methyl-7-(methylamino)-1,4-dihydropyrimido[4,5-d]pyrimidin-3(2H)-yl)phenyl)-3-(trifluoromethyl)benzamide] | 1.04 | > 10 | 6.47 | 11.5 | 5.47 | 6.34 | 4.09 | 12.5 | 
2 | Cc1ccc(NC(=O)c2cccc(C(F)(F)F)c2)cc1N1Cc2cnc(NC3CC3)nc2N(C)C1 [IA-4, N-(3-(7-(cyclopropylamino)-1-methyl-1,4-dihydropyrimido[4,5-d]pyrimidin-3(2H)-yl)-4-methylphenyl)-3-(trifluoromethyl)benzamide] | 0.956 | 9.72 | 8.33 | 9.56 | 4.97 | 6.79 | 1.32 | 11.3 | 
3 | Cc1ccc(NC(=O)c2cccc(C(F)(F)F)c2)cc1N1Cc2cnc(NCCN3CCOCC3)nc2N(C)C1 [IA-5, N-(4-methyl-3-(1-methyl-7-((2-morpholinoethyl)amino)-1,4-dihydropyrimido[4,5-d]pyrimidin-3(2H)-yl)phenyl)-3-(trifluoromethyl)benzamide] | 1.72 | 2.92 | 3.44 | 3.29 | 3.24 | 4.05 | 2.14 | 6.3 | 
4 | Cc1ccc(NC(=O)c2cccc(C(F)(F)F)c2)cc1N1Cc2cnc(NCCc3c[nH]cn3)nc2N(C)C1 [IA-6, N-(3-(7-((2-(1H-imidazol-4-yl)ethyl)amino)-1-methyl-1,4-dihydropyrimido[4,5-d]pyrimidin-3(2H)-yl)-4-methylphenyl)-3-(trifluoromethyl)benzamide] | 2.22 | 4.45 | 5.53 | 5.5 | 3.7 | ~3.36 | ~3.21 | 5.14 | 
5 | Cc1ccc(NC(=O)c2cccc(C(F)(F)F)c2)cc1N1Cc2cnc(N[C@H](C)CO)nc2N(C)C1 [IA-7, (R)—N-(3-(7-((1-hydroxypropan-2-yl)amino)-1-methyl-1,4-dihydropyrimido[4,5-d]pyrimidin-3(2H)-yl)-4-methylphenyl)-3-(trifluoromethyl)benzamide] | 0.665 | > 10 | 8.1 | 8.28 | 4.22 | 7.47 | 4.48 | 24.4 | 
6 | Cc1ccc(NC(=O)c2cccc(C(F)(F)F)c2)cc1N1Cc2cnc(N[C@@H](C)CO)nc2N(C)C1 [IA-8, (S)—N-(3-(7-((1-hydroxypropan-2-yl)amino)-1-methyl-1,4-dihydropyrimido[4,5-d]pyrimidin-3(2H)-yl)-4-methylphenyl)-3-(trifluoromethyl)benzamide] | 1.94 | > 10 | 7.57 | 5.21 | 3.65 | 9.22 | 2.5 | 17.9 | 
7 | Cc1ccc(NC(=O)c2cccc(C(F)(F)F)c2)cc1N1Cc2cnc(Nc3cnn(C)c3)nc2N(C)C1 [IA-10, N-(4-methyl-3-(1-methyl-7-((1-methyl-1H-pyrazol-4-yl)amino)-1,4-dihydropyrimido[4,5-d]pyrimidin-3(2H)-yl)phenyl)-3-(trifluoromethyl)benzamide] | 0.000251 | 2.76 | 4.6 | 2.9 | 2.32 | 4.64 | 1.43 | 11.8 | 1.77
8 | Cc1ccc(Nc2ncc3c(n2)N(c2ccccc2)CN(c2cc(NC(=O)c4cccc(C(F)(F)F)c4)ccc2C)C3)cn1 [IB-4, N-(4-methyl-3-(7-((6-methylpyridin-3-yl)amino)-1-phenyl-1,4-dihydropyrimido[4,5-d]pyrimidin-3(2H)-yl)phenyl)-3-(trifluoromethyl)benzamide] | 0.669 |  | 5.36 | 4.93 | 3.68 | > 10 | 4.11 | 17.1 | 4.61
9 | Cc1ccc(Nc2ncc3c(n2)N(C)CN(c2cc(C(=O)Nc4cccc(C(F)(F)F)c4)ccc2C)C3)cn1 [IC-1, 4-methyl-3-(1-methyl-7-((6-methylpyridin-3-yl)amino)-1,4-dihydropyrimido[4,5-d]pyrimidin-3(2H)-yl)-N-(3-(trifluoromethyl)phenyl)benzamide] | 0.00693 | 0.196 | 1.69 | 1.57 | 0.0912 | 1.65 | 0.189 | 5.36 | 
10 | Cc1ccc(Nc2ncc3c(n2)N(C)CN(c2cc(C(=O)NCCO)ccc2C)C3)cn1 [IC-2, N-(2-hydroxyethyl)-4-methyl-3-(1-methyl-7-((6-methylpyridin-3-yl)amino)-1,4-dihydropyrimido[4,5-d]pyrimidin-3(2H)-yl)benzamide] | 6.36 | > 10 | > 10 | > 10 | > 10 | > 10 | > 10 | > 10 | 
11 | Cc1ccc(Nc2ncc3c(n2)N(C)CN(c2cc(C(=O)NCCN4CCOCC4)ccc2C)C3)cn1 [IC-3, 4-methyl-3-(1-methyl-7-((6-methylpyridin-3-yl)amino)-1,4-dihydropyrimido[4,5-d]pyrimidin-3(2H)-yl)-N-(2-morpholinoethyl)benzamide] | 0.217 | > 10 | > 10 | > 10 | > 10 | > 10 | > 10 | > 10 | 
12 | CONC(=O)c1ccc(C)c(N2Cc3cnc(Nc4ccc(C)nc4)nc3N(C)C2)c1 [IC-4, N-methoxy-4-methyl-3-(1-methyl-7-((6-methylpyridin-3-yl)amino)-1,4-dihydropyrimido[4,5-d]pyrimidin-3(2H)-yl)benzamide] | 0.0631 | > 10 | > 10 | > 10 | > 10 | > 10 | > 10 | > 10 | 
13 | Cc1ccc(Nc2ncc3c(n2)N(C)CN(c2cccc(NC(=O)c4cccc(C(F)(F)F)c4)c2)C3)cn1 [IC-5, N-(3-(1-methyl-7-((6-methylpyridin-3-yl)amino)-1,4-dihydropyrimido[4,5-d]pyrimidin-3(2H)-yl)phenyl)-3-(trifluoromethyl)benzamide] | 0.94 | > 10 | > 10 | > 10 | 9.29 | > 10 | > 10 | 29.3 | 
14 | COc1ccc(NC(=O)c2cccc(C(F)(F)F)c2)cc1N1Cc2cnc(Nc3ccc(C)nc3)nc2N(C)C1 [IC-6, N-(4-methoxy-3-(1-methyl-7-((6-methylpyridin-3-yl)amino)-1,4-dihydropyrimido[4,5-d]pyrimidin-3(2H)-yl)phenyl)-3-(trifluoromethyl)benzamide] | 0.387 | 8 | 10.3 | 8.15 | 5.18 | ~9.03 | ~8.23 | 22.8 | 
